Source: US20170281509A1, “COMPOSITIONS AND METHODS FOR MITIGATING SKIN IRRITATION” (GOJO INDUSTRIES, INC., priority 2014, published 2017)

Test system: IL-8 secretion by human dermal keratinocytes
Experiment: IL-8 secretion (ELISA) in human dermal keratinocytes co-treated with irritant surfactant mixture
Type: cell-based
Conditions: FIG. 1
Description: Interleukin 8 (IL-8) is a chemokine and proinflammatory cytokine produced by macrophages and other cell types such as epithelial cells. It is secreted from keratinocytes in skin in response to inflammatory stimuli. IL-8 is secreted and is an important mediator of the immune reaction in the innate immune system response. IL-8 overexpressed is a biomarker of skin irritation. Thus, the following method may be employed to measure the irritancy potential of an ingredient or combination of ingredients.
For Control A, human dermal keratinocytes were left untreated. No irritation is expected, and therefore Control A provided a baseline. For Control B, IL-8 was induced in human dermal keratinocytes by applying a surfactant mixture that is a combination of sodium laureth sulfate and polyquaternium-10. For all other samples, the human dermal keratinocytes were co-treated with the surfactant mixture and a composition containing the ingredient of interest. Decreased IL-8 expression reflects the ingredient's anti-irritation activity. In other words, decreased IL-8 expression reflects reduced irritancy potential.
In order to carry out the test method, an assay kit was employed that was obtained from R&D Systems: Human CXCL8/IL-8 Duoset ELISA Kit.
The following steps were followed: 1. […] Using a colorimeter, absorbance of each well in the plates was measured at 450 nanometers (nm) within 30 minutes. […]

Question: For acetyl hexapeptide-51 amide, which “effect on IL-8 secretion compared to Control B (in words)” value is on record?
Answer: reduced IL-8 secretion
